Measurements as given in US5021421A, “2-(1-Piperazinyl)-4-phenylcycloalkanopyridine derivatives, processes for the production thereof, and pharmaceutical composition containing the same” (Dainippon Pharmaceutical Co., Ltd., priority 1989, dated 1991).
pIC50: −log10 of the molar value. Read-outs that look alike come from different tables or passages of the source.

Assays:
exploratory activity = experiment: Inhibitory effect on exploratory activity (Animex activity meter); assay type: in vivo, mice (Std-ddy strain); settings: oral, 2 h after administration, 3 min counting; dose not given
Protocol: A group of 5 male mice (Std-ddy strain, 20-25 g) was used. Two hours after oral administration of the test compound, mice were placed individually in a test box (23×35×30 cm) on Animex activity meter (Farad Co.). Immediately thereafter, activity counting was started and lasted for three minutes. The mean counts of the compound-treated group were compared with those of the corresponding control (non-dosed) group, and the percent inhibition was calculated.

dopamine (D2) receptor = target: T1, dopamine (D2) receptor (Rattus norvegicus, UniProt P61169); experiment: In vitro binding to dopamine (D2) receptor, [3H] spiperone; design: species or system rats; settings: [3H] spiperone, rat brain crude synaptosome fraction; read-out: IC50 D2
T1 construct: Crude synaptosome fractions were prepared from some brain regions in rats for receptor sources; from tissue
Protocol: (§1) Dopamine (D2), serotonin (S1, S2) and adrenaline (α1) receptor binding assays were carried out according to the methods of I. Creese et al. [Eur. J. Pharmacol., 46, 377 (1977), S. J. Peroutka et al. [Mol. Pharmacol. 16, 687 (1979)], J. E. Leysen et al. [Mol. Pharmacol., 21, 301 (1982)] and D. C. U'Prichard et al. [Mol. Pharmacol., 13, 454 (1977)], respectively.
(§2) Crude synaptosome fractions were prepared from some brain regions in rats for receptor sources. Radioactive ligands used were [^3 H] spiperone (D2), [^3 H] serotonin (S1), [^3 H] ketanserin (S2) and [^3 H] WB-4101 (α1). The binding assay was performed by incubating aliquots of synaptosome fraction in buffer solution (final volume: 1 ml) containing a [^3 H] labelled ligand and a test compound. The assay was terminated by rapid filtration through Whatman GF/B glass fiber filters attached to a cell-harvester (Brandel) and radioactivity on the filters was counted in a Packard Triscarb scintillation counter. Specific binding was calculated as a difference between amounts of radioactivity in the presence and absence of an unlabelled ligand [spiperone (D2), serotonin (S1), methysergide (S2) and prazosin (α1)]. The IC50 value of the test compounds (concentration causing 50% inhibition of [^3 H] ligand specific binding) was determined by probit analysis.

serotonin (S2) receptor = target: T2, serotonin (S2) receptor (Rattus norvegicus, UniProt P14842); experiment: In vitro binding to serotonin (S2) receptor, [3H] ketanserin; design: species or system rats; settings: [3H] ketanserin, rat brain crude synaptosome fraction
T2 construct: Crude synaptosome fractions were prepared from some brain regions in rats for receptor sources; from tissue
Protocol: as §1, §2

adrenaline (α1) receptor = experiment: In vitro binding to adrenaline (α1) receptor, [3H] WB-4101; design: species or system rats; settings: [3H] WB-4101, rat brain crude synaptosome fraction
Protocol: as §1, §2

[1] = system: apomorphine-induced vomiting; experiment: Antagonistic effect on apomorphine-induced vomiting; assay type: in vivo, dogs (Beagle); settings: Canis lupus familiaris, sc, apomorphine 0.3 mg/kg s.c. 2 h after compound, read-out: Inhibitory ratio (apomorphine-induced vomiting)
Protocol: A group of 3-4 dogs (Beagle, 8-15 kg) was used for examining effects on the test compounds on apomorphine-induced vomiting, a known test for evaluating neuroleptic drugs.
Each dog was given a subcutaneous injection of apomorphine hydrochloride (0.3 mg/kg) two hours after the treatment of the test compounds. Then, the frequency of oral vomiting was counted for one hour. The mean counts of the compound-treated group were compared with those of the corresponding control (non-dosed) group, and the percent inhibition was calculated.

[2] = system: brain monoamine metabolites; experiment: Increasing effect on concentration of brain monoamine metabolites; assay type: in vivo, mice (Std-ddy strain); settings: Mus musculus, 2 h, non-dosed=100
Protocol: A group of 5 male mice (Std-ddy strain, 25-30 g) was used for examining effect of the test compounds on concentration of brain monoamine metabolites.
Mice were killed by decapitation 2 hours after treatment with the test compounds. Brains were quickly taken out, homogenized in 1N formic acid-acetone solution, and centrifuged in a refrigerated ultracentrifuge. The supernatant was evaporated by blowing with N2 gas. Then, the residue was again resolved in 0.01 N acetic acid, and served for determining concentration of dopamine metabolites, 3,4-dihydroxyphenylacetic acid (DOPAC) and homovanillic acid (HVA), a norepinephrine metabolite, 3-methyl-4-hydroxyphenylethylene glycol (MOPEG), and a serotonin metabolite, 5-hydroxyindole-3-acetic acid (5-HIAA) concentrations by HPLC with electrochemical detection. The effect of the test compounds on concentration of each monoamine metabolite is shown as % of control (level of non-dosed animals=100) in Table 4.

[3] = read-out: 5-HIAA concentration, % of control
[4] = read-out: DOPAC concentration, % of control
[5] = read-out: HVA concentration, % of control

T1 sequence (P61169 whole entry): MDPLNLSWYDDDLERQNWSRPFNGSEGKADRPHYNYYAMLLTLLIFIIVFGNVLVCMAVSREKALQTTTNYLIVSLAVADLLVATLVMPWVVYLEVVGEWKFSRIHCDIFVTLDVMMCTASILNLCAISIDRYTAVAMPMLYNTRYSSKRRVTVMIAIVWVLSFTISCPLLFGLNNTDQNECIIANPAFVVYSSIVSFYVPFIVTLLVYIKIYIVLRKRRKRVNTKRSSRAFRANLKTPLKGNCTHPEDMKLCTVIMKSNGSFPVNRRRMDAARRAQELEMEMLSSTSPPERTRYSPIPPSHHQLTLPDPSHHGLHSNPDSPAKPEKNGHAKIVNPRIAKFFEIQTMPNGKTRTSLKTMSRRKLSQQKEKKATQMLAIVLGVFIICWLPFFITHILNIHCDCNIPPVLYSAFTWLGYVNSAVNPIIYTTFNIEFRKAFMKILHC
T2 sequence (P14842 whole entry): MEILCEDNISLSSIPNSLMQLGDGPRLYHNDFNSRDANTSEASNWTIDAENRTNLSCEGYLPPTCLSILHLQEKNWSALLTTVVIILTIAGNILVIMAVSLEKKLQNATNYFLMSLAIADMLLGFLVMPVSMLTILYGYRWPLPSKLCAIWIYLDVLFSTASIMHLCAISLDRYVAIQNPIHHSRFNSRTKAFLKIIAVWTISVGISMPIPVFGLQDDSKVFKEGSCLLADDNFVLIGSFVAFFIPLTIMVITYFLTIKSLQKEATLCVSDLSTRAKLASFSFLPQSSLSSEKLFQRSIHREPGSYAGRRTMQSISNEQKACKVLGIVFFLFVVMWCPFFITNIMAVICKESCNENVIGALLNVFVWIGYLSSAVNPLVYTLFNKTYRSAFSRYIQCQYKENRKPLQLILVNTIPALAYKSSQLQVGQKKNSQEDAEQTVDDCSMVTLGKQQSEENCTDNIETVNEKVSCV

## CCN1CCN(c2cc(-c3ccc(F)cc3F)c3c(n2)CCCCCC3)CC1 [Example 2a, 2-(4-ethyl-1-piperazinyl)-4-(2,4-difluorophenyl)-5,6,7,8,9,10-hexahydrocycloocta[b] pyridine]
Exploratory activity
  Inhibitory ratio (exploratory activity): 77.5%
Dopamine (D2) receptor
  pIC50: 7.62
Serotonin (S2) receptor
  pIC50: 7.55
Adrenaline (α1) receptor
  pIC50: 7.06

## OCCN1CCN(c2cc(-c3ccc(F)cc3)c3c(n2)CCC3)CC1 [Example 7, 2-[4-(2-Hydroxyethyl)-1-piperazinyl]-4-(4-fluoro-phenyl)-6,7-dihydro-5H-1-pyrindine]
[1]
  inhibition in vivo at 1 mg/kg: 80%
Dopamine (D2) receptor
  pIC50: 7.52
Serotonin (S2) receptor
  pIC50: 8.02

## CCN1CCN(c2cc(-c3ccc(Cl)cc3)c3c(n2)CCCCC3)CC1 [Example 31]
Exploratory activity
  Inhibitory ratio (exploratory activity): 62.5%

## CCN1CCN(c2cc(-c3ccccc3)c3c(n2)CCCCCC3)CC1 [Example 36]
Exploratory activity
  Inhibitory ratio (exploratory activity): 68.4%
[1]
  inhibition in vivo at 0.5 mg/kg: 81%

## Fc1ccc(-c2cc(N3CCN(C4CCCC4)CC3)nc3c2CCCCCC3)cc1 [Example 38]
Exploratory activity
  Inhibitory ratio (exploratory activity): 58.9%

## OCCN1CCN(c2cc(-c3ccc(F)cc3F)c3c(n2)CCCCCC3)CC1 [Example 53]
Exploratory activity
  Inhibitory ratio (exploratory activity): 68.1%

## CCN1CCN(c2cc(-c3ccccc3)c3c(n2)CCC(C)C3)CC1 (stereo not drawn) [Example 57]
Exploratory activity
  Inhibitory ratio (exploratory activity): 77.2%

## CCN1CCN(c2cc(-c3ccccc3)c3c(n2)C2CCC3C2)CC1 (stereo not drawn) [Example 71]
Exploratory activity
  Inhibitory ratio (exploratory activity): 61.9%
[1]
  inhibition in vivo at 3 mg/kg: 84%
Dopamine (D2) receptor
  pIC50: 7.60
Serotonin (S2) receptor
  pIC50: 7.85
Adrenaline (α1) receptor
  pIC50: 7.89

## CCN1CCN(c2cc(-c3ccc(F)cc3)c3c(n2)C2CCC3C2)CC1 (stereo not drawn) [Example 73]
[1]
  inhibition in vivo at 1 mg/kg: 100%
Dopamine (D2) receptor
  pIC50: 7.74
Serotonin (S2) receptor
  pIC50: 8.62
Adrenaline (α1) receptor
  pIC50: 8.34

## CCN1CCN(c2cc(-c3ccc(F)cc3)c3c(n2)C2CCC3CC2)CC1 [Example 75]
Exploratory activity
  Inhibitory ratio (exploratory activity): 78.9%

## CC1CN(c2cc(-c3ccc(F)cc3)c3c(n2)CCCCCC3)CCN1 (stereo not drawn) [Example 83, 2-(3-Methyl-1-piperazinyl)-4-(4-fluorophenyl)-5,6,7,8,9,10-hexahydrocycloocta[b]pyridine]
Exploratory activity
  Inhibitory ratio (exploratory activity): 53.5%

## c1ccc(-c2cc(N3CCNCC3)nc3c2CCCCCC3)cc1 [Example 103]
Dopamine (D2) receptor
  pIC50: 6.85
Serotonin (S2) receptor
  pIC50: 7.39

## Fc1ccc(-c2cc(N3CCNCC3)nc3c2CCCCCC3)c(F)c1 [Example 106]
Exploratory activity
  Inhibitory ratio (exploratory activity): 74.9%

## c1ccc(-c2cc(N3CCNCC3)nc3c2C2CCC3C2)cc1 (stereo not drawn) [Example 107]
Exploratory activity
  Inhibitory ratio (exploratory activity): 53.2%

## CN1CCN(c2cc(-c3ccc(F)cc3)c3c(n2)CCC3)CC1 [Example 111, 2-(4-methyl-1-piperazinyl)-4-(4-fluorophenyl)-6,7-dihydro-5H-1-pyrindine]
Exploratory activity
  Inhibitory ratio (exploratory activity): 74.0%

## CN1CCN(c2cc(-c3ccc(F)cc3)c3c(n2)CCCCCC3)CC1.O=C(O)/C=C\C(=O)O.O=C(O)/C=C\C(=O)O [Example 112, 2-(4-Methyl-1-piperazinyl)-4-(4-fluorophenyl)-5,6,7,8,9,10-hexahydrocycloocta[b]pyridine dimaleate]
Exploratory activity
  Inhibitory ratio (exploratory activity): 73.2%
[1]
  inhibition in vivo at 0.2 mg/kg: 94%

## CN1CCN(c2cc(-c3ccc(F)cc3F)c3c(n2)CCCCCC3)CC1 [Example 114, 2-(4-Methyl-1-piperazinyl)-4-(2,4-difluorophenyl)-5,6,7,8,9,10-hexahydrocycloocta[b]pyridine]
Exploratory activity
  Inhibitory ratio (exploratory activity): 81.9%
[1]
  inhibition in vivo at 0.2 mg/kg: 89%

## CCCN1CCN(c2cc(-c3ccc(F)cc3)c3c(n2)CCCCCC3)CC1 [Example 118, 2-(4-n-propyl-1-piperazinyl)-4-(4-fluorophenyl)-5,6,7,8,9,10-hexahydrocycloocta[b]pyridine]
[1]; dose 0.3 mg/kg
  inhibition in vivo at 0.3 mg/kg: 94%
[2]; [3]
  response vs control in vivo at 3 mg/kg: 110%
[2]; [4]
  response vs control in vivo at 3 mg/kg: 302%
[2]; [5]
  response vs control in vivo at 3 mg/kg: 250%
[2]; read-out: MOPEG concentration, % of control
  response vs control in vivo at 3 mg/kg: 129%

## CC(C)N1CCN(c2cc(-c3ccc(F)cc3)c3c(n2)CCCCCC3)CC1 [Example 121]
[1]
  inhibition in vivo at 0.5 mg/kg: 93%
[2]; [3]
  response vs control in vivo at 10 mg/kg: 111%
[2]; [4]
  response vs control in vivo at 10 mg/kg: 312%
[2]; [5]
  response vs control in vivo at 10 mg/kg: 215%

## CCCCN1CCN(c2cc(-c3ccc(F)cc3)c3c(n2)CCCCCC3)CC1 [Example 122, 2-(4-n-Butyl-1-piperazinyl)-4-(4-fluorophenyl)-5,6,7,8,9,10-hexahydrocycloocta[b]pyridine]
Exploratory activity
  Inhibitory ratio (exploratory activity): 81.3%
[1]
  inhibition in vivo at 0.5 mg/kg: 100%
[2]; [3]
  response vs control in vivo at 2 mg/kg: 100%
[2]; [4]
  response vs control in vivo at 2 mg/kg: 306%
[2]; [5]
  response vs control in vivo at 2 mg/kg: 229%

## CCCCCN1CCN(c2cc(-c3ccc(F)cc3)c3c(n2)CCCCCC3)CC1 [Example 123, 2-(4-n-Pentyl-1-piperazinyl)-4-(4-fluorophenyl)-5,6,7,8,9,10-hexahydrocycloocta[b]pyridine]
Exploratory activity
  Inhibitory ratio (exploratory activity): 72.2%

## C=CCN1CCN(c2cc(-c3ccc(F)cc3)c3c(n2)CCCCCC3)CC1 [Example 125]
Exploratory activity
  Inhibitory ratio (exploratory activity): 57.9%

## CCCN1CCN(c2cc(-c3ccc(F)cc3F)c3c(n2)CCCCCC3)CC1 [Example 127, 2-(4-n-propyl-1-piperazinyl)-4-(2,4-difluorophenyl)-5,6,7,8,9,10-hexahydrocycloocta[b]pyridine]
Exploratory activity
  Inhibitory ratio (exploratory activity): 80.3%

## COc1ccc(-c2cc(N3CCN(c4ccccc4)CC3)nc(C)c2-c2ccc(OC)cc2)cc1 [Test Compound B, 4,5-Bis-(4-methoxyphenyl)-6-methyl-2-(4-phenylpiperazino)pyridine, reference compound]
[1]
  inhibition in vivo at 3 mg/kg: 13%
Dopamine (D2) receptor
  pIC50: < 5.00

## Cc1nc(N2CCN(c3ccccc3)CC2)cc(-c2ccc(O)cc2)c1-c1ccc(O)cc1 [Test Compound C, 4,5-Bis-(4-hydroxyphenyl)-6-methyl-2-(4-phenylpiperazino)pyridine, reference compound]
[1]
  inhibition in vivo at 3 mg/kg: 16%
Dopamine (D2) receptor
  pIC50: < 5.00
